From ChEMBL document CHEMBL4651402, “Screening of ~5500 FDA-approved drugs and clinical candidates for anti-SARS-CoV-2 activity” (2021)

How the values were obtained:
[1] = tested on: SARS-CoV-2; experiment: microbe, parasite or virus in culture; type: functional, organism-based, Chlorocebus sabaeus, Vero C1008; settings: Severe acute respiratory syndrome coronavirus 2, Vero C1008, 48 h
[2] = tested on: SARS-CoV-2; experiment: microbe, parasite or virus in culture; settings: Severe acute respiratory syndrome coronavirus 2, Vero C1008, 48 h
[3] = in vitro; settings: chlorocebus sabaeus, Vero E6 (Vero C1008) cells

NCCCCCN
IC50 ([1]; read-out: IC50): > 20 µM
IC50 ([1]; read-out: pIC50 (converted)): > 20 µM

CN1c2c([nH]c(N)nc2=O)NCC1CNc1ccc(C(=O)N[C@@H](CCC(=O)O)C(=O)O)cc1 (stereo partly drawn)
IC50 ([1]; read-out: IC50): > 20 µM
IC50 ([1]; read-out: pIC50 (converted)): > 20 µM

CCOc1nc(N)nc2c1ncn2[C@@H]1O[C@@H]2CO[P@](=O)(OC(C)C)O[C@H]2[C@@]1(C)F
IC50 ([1]; read-out: IC50): > 50.1 µM
IC50 ([1]; read-out: pIC50 (converted)): > 50.1 µM
IC50 [2]: > 20 µM
IC50 ([2]; read-out: pIC50 (converted)): > 20 µM

CN1[C@@H]2CC[C@H]1CC(OC(c1ccccc1)c1ccccc1)C2 (stereo partly drawn)
CC50 at 48 h ([3]; CC50): ~46.8 µM
CC50 at 48 h ([3]; pCC50): ~46.8 µM

Cc1nc2ccc(Oc3ccccc3)cc2c2c1CCN2CCc1ccccc1
IC50 ([1]; read-out: IC50): ~4.9 µM
IC50 ([1]; read-out: pIC50 (converted)): ~4.9 µM
IC50 [2]: > 20 µM
IC50 ([2]; read-out: pIC50 (converted)): > 20 µM

CC(C)CN(C[C@H](O)[C@H](Cc1ccccc1)NC(=O)O[C@H]1CO[C@@H]2OCC[C@@H]21)S(=O)(=O)c1ccc(N)cc1
IC50 ([1]; read-out: IC50): > 20 µM
IC50 ([1]; read-out: pIC50 (converted)): > 20 µM
IC50 [2]: > 20 µM
IC50 ([2]; read-out: pIC50 (converted)): > 20 µM

Nc1ccn([C@@H]2S[C@H](CO)[C@@H](O)[C@H]2F)c(=O)n1
IC50 ([1]; read-out: IC50): > 20 µM
IC50 ([1]; read-out: pIC50 (converted)): > 20 µM
IC50 [2]: > 20 µM
IC50 ([2]; read-out: pIC50 (converted)): > 20 µM

CCOc1ccc(-n2c([C@@H](C)N(Cc3cccnc3)C(=O)Cc3ccc(OC(F)(F)F)cc3)nc3ncccc3c2=O)cc1 (racemic)
IC50 ([1]; read-out: IC50): > 20 µM
IC50 ([1]; read-out: pIC50 (converted)): > 20 µM
IC50 [2]: > 20 µM
IC50 ([2]; read-out: pIC50 (converted)): > 20 µM

CN1CC[C@H](c2c(O)cc(O)c3c(=O)cc(-c4ccccc4Cl)oc23)[C@H](O)C1 [ALVOCIDIB]
IC50 ([1]; read-out: IC50): > 10 µM
IC50 ([1]; read-out: pIC50 (converted)): > 10 µM
IC50 [2]: > 20 µM
IC50 ([2]; read-out: pIC50 (converted)): > 20 µM

O=C1CCc2ccc(OCCCCN3CCN(c4cccc(Cl)c4Cl)CC3)cc2N1 [ARIPIPRAZOLE]
CC50 at 48 h ([3]; CC50): 11.4 µM
CC50 at 48 h ([3]; pCC50): 11.2 µM

COc1nc(N)nc2c1ncn2[C@@H]1O[C@H](COP(=O)(N[C@@H](C)C(=O)OCC(C)(C)C)Oc2cccc3ccccc23)[C@@H](O)[C@@]1(C)O (stereo partly drawn) [BMS-986094]
IC50 ([1]; read-out: IC50): > 20 µM
IC50 ([1]; read-out: pIC50 (converted)): > 20 µM
IC50 [2]: > 20 µM
IC50 ([2]; read-out: pIC50 (converted)): > 20 µM

Cc1c(-c2ccc(-c3ccccc3F)cc2)nc2ccc(F)cc2c1C(=O)O [BREQUINAR]
IC50 ([1]; read-out: IC50): > 20 µM
IC50 ([1]; read-out: pIC50 (converted)): > 20 µM
IC50 [2]: > 20 µM
IC50 ([2]; read-out: pIC50 (converted)): > 20 µM

CN(C)C(=O)COC(=O)Cc1ccc(OC(=O)c2ccc(NC(=N)N)cc2)cc1 [CAMOSTAT]
IC50 ([1]; read-out: IC50): > 100 µM
IC50 ([1]; read-out: pIC50 (converted)): > 100 µM
IC50 [2]: > 20 µM
IC50 ([2]; read-out: pIC50 (converted)): > 20 µM

CCN(CC)CCOc1ccc(C(=C(Cl)c2ccccc2)c2ccccc2)cc1 [CLOMIPHENE]
IC50 ([1]; read-out: IC50): > 20 µM
IC50 ([1]; read-out: pIC50 (converted)): > 20 µM
IC50 [2]: > 20 µM
IC50 ([2]; read-out: pIC50 (converted)): > 20 µM

COc1cc2c(c(OC)c1OC)-c1ccc(OC)c(=O)cc1[C@@H](NC(C)=O)CC2 [COLCHICINE]
IC50 ([1]; read-out: IC50): > 100 µM
IC50 ([1]; read-out: pIC50 (converted)): > 100 µM
IC50 [2]: > 100 µM
IC50 ([2]; read-out: pIC50 (converted)): > 100 µM

Nc1ccn([C@@H]2O[C@H](CO)[C@@H](O)[C@@H]2O)c(=O)n1 [CYTARABINE]
IC50 ([1]; read-out: IC50): > 20 µM
IC50 ([1]; read-out: pIC50 (converted)): > 20 µM
IC50 [2]: > 50.1 µM
IC50 ([2]; read-out: pIC50 (converted)): > 50.1 µM

Cc1nc(OCCCCCN2CCCCC2)cc(-c2ccc(F)cc2)n1 [ENECADIN]
IC50 ([1]; read-out: IC50): 21.9 µM
IC50 ([1]; read-out: pIC50 (converted)): 21.9 µM
IC50 [2]: 1.74 µM
IC50 ([2]; read-out: pIC50 (converted)): 1.74 µM

COc1cccc2c1C(=O)c1c(O)c3c(c(O)c1C2=O)C[C@@](O)(C(=O)CO)C[C@@H]3O[C@H]1C[C@H](N)[C@@H](O)[C@H](C)O1 [EPIRUBICIN]
IC50 ([1]; read-out: IC50): > 100 µM
IC50 ([1]; read-out: pIC50 (converted)): > 100 µM

CN1CC(=O)N=C1NC(=O)Nc1cccc(Cl)c1 [FENOBAM ANHYDROUS]
IC50 ([1]; read-out: IC50): > 25.1 µM
IC50 ([1]; read-out: pIC50 (converted)): > 25.1 µM
IC50 [2]: > 20 µM
IC50 ([2]; read-out: pIC50 (converted)): > 20 µM

c1cc(OCCCN2CCCCC2)ccc1CN1CCCCC1 [JNJ-5207852]
IC50 ([1]; read-out: IC50): > 20 µM
IC50 ([1]; read-out: pIC50 (converted)): > 20 µM
IC50 [2]: > 20 µM
IC50 ([2]; read-out: pIC50 (converted)): > 20 µM

CN(C[C@@H]1COCCO1)S(=O)(=O)Nc1ccc2ccc3ncc(-c4cnn(C)c4)cc3c(=O)c2c1 [MK-2461]
IC50 ([1]; read-out: IC50): > 20 µM
IC50 ([1]; read-out: pIC50 (converted)): > 20 µM
IC50 [2]: > 20 µM
IC50 ([2]; read-out: pIC50 (converted)): > 20 µM

CC(C)C(=O)OC[C@H]1O[C@@H](n2cc/c(=N\O)[nH]c2=O)[C@H](O)[C@@H]1O [MOLNUPIRAVIR]
IC50 ([1]; read-out: IC50): ~4.56 µM
IC50 ([1]; read-out: pIC50 (converted)): ~4.57 µM
IC50 [2]: 14.1 µM
IC50 ([2]; read-out: pIC50 (converted)): 14.1 µM

CC(COc1ccccc1)N(CCCl)Cc1ccccc1 (stereo not drawn) [PHENOXYBENZAMINE]
IC50 ([1]; read-out: IC50): > 100 µM
IC50 ([1]; read-out: pIC50 (converted)): > 100 µM
IC50 [2]: 20 µM
IC50 ([2]; read-out: pIC50 (converted)): 20 µM

CC[C@@H](C(=O)[C@@H](C)[C@@H](O)[C@H](C)[C@@H]1O[C@@H]([C@@H](CC)C(=O)O)CC[C@@H]1C)[C@H]1O[C@]2(C=C[C@@H](O)[C@]3(CC[C@@](C)([C@H]4CC[C@](O)(CC)[C@H](C)O4)O3)O2)[C@H](C)C[C@@H]1C [SALINOMYCIN]
IC50 ([1]; read-out: IC50): 1.29 µM
IC50 ([1]; read-out: pIC50 (converted)): 1.29 µM
IC50 [2]: > 20 µM
IC50 ([2]; read-out: pIC50 (converted)): > 20 µM

Nc1ccn([C@@H]2S[C@H](CO)[C@@H](O)[C@@H]2O)c(=O)n1 [THIARABINE]
IC50 ([1]; read-out: IC50): ~12.3 µM
IC50 ([1]; read-out: pIC50 (converted)): ~12.3 µM
IC50 [2]: > 20 µM
IC50 ([2]; read-out: pIC50 (converted)): > 20 µM

CCOC(=O)c1c(CSc2ccccc2)n(C)c2cc(Br)c(O)c(CN(C)C)c12 [UMIFENOVIR]
IC50 ([1]; read-out: IC50): > 100 µM
IC50 ([1]; read-out: pIC50 (converted)): > 100 µM
IC50 [2]: > 100 µM
IC50 ([2]; read-out: pIC50 (converted)): > 100 µM

Cc1cn([C@H]2C[C@H](N=[N+]=[N-])[C@@H](CO)O2)c(=O)[nH]c1=O [ZIDOVUDINE]
IC50 [2]: > 100 µM
IC50 ([2]; read-out: pIC50 (converted)): > 100 µM

CC(c1cc2ccccc2s1)N(O)C(N)=O (stereo not drawn) [ZILEUTON]
IC50 [2]: > 20 µM
IC50 ([2]; read-out: pIC50 (converted)): > 20 µM

CC[C@@H]1[C@H](F)C(=O)N[C@@H]1COc1nccc2cc(C(N)=O)c(OC)cc12 [ZIMLOVISERTIB]
IC50 [2]: > 20 µM
IC50 ([2]; read-out: pIC50 (converted)): > 20 µM

CC(C)(Cc1ccccc1)NCC(O)c1ccc(O)c(NS(C)(=O)=O)c1 (stereo not drawn) [ZINTEROL]
IC50 [2]: > 20 µM
IC50 ([2]; read-out: pIC50 (converted)): > 20 µM

CC(C)S(=O)(=O)n1c(N)nc2ccc(/C(=N\O)c3ccccc3)cc21 [ZINVIROXIME]
IC50 [2]: > 20 µM
IC50 ([2]; read-out: pIC50 (converted)): > 20 µM

O=C1Cc2cc(CCN3CCN(c4nsc5ccccc45)CC3)c(Cl)cc2N1 [ZIPRASIDONE]
IC50 [2]: > 20 µM
IC50 ([2]; read-out: pIC50 (converted)): > 20 µM

Cc1ccc2nc(N3CCS(=O)(=O)c4ccccc4C3)nc(NCC3(N)COC3)c2c1 [ZIRESOVIR]
IC50 [2]: > 20 µM
IC50 ([2]; read-out: pIC50 (converted)): > 20 µM

C[C@H](CSC(=O)c1ccccc1)C(=O)N1C[C@@H](Sc2ccccc2)C[C@H]1C(=O)O [ZOFENOPRIL]
IC50 [2]: > 20 µM
IC50 ([2]; read-out: pIC50 (converted)): > 20 µM

CS(=O)(=O)c1ccc(-c2cn3ccccc3n2)cc1 [ZOLIMIDINE]
IC50 [2]: > 20 µM
IC50 ([2]; read-out: pIC50 (converted)): > 20 µM

CC(C(=O)O)c1ccc(Oc2nccs2)cc1 (stereo not drawn) [ZOLIPROFEN]
IC50 [2]: > 20 µM
IC50 ([2]; read-out: pIC50 (converted)): > 20 µM

CN(C)CCc1c[nH]c2ccc(C[C@H]3COC(=O)N3)cc12 [ZOLMITRIPTAN]
IC50 [2]: > 20 µM
IC50 ([2]; read-out: pIC50 (converted)): > 20 µM

Cc1ccc(-c2nc3ccc(C)cn3c2CC(=O)N(C)C)cc1 [ZOLPIDEM]
IC50 [2]: > 20 µM
IC50 ([2]; read-out: pIC50 (converted)): > 20 µM

Cc1cc(CC(=O)O)n(C)c1C(=O)c1ccc(Cl)cc1 [ZOMEPIRAC]
IC50 [2]: > 20 µM
IC50 ([2]; read-out: pIC50 (converted)): > 20 µM

NS(=O)(=O)Cc1noc2ccccc12 [ZONISAMIDE]
IC50 [2]: > 20 µM
IC50 ([2]; read-out: pIC50 (converted)): > 20 µM

CN1CCN(C(=O)OC2c3nccnc3C(=O)N2c2ccc(Cl)cn2)CC1 (stereo not drawn) [ZOPICLONE]
IC50 [2]: > 20 µM
IC50 ([2]; read-out: pIC50 (converted)): > 20 µM

O[C@@H](COc1cccc2ncccc12)CN1CCN([C@@H]2c3ccccc3[C@@H]3[C@H](c4ccccc42)C3(F)F)CC1 [ZOSUQUIDAR]
IC50 [2]: > 20 µM
IC50 ([2]; read-out: pIC50 (converted)): > 20 µM

COc1cc2c(c(OC)n1)[C@]1(O)[C@H](O)[C@H](CN(C)C)[C@@H](c3ccccc3)[C@]1(c1ccc(C#N)cc1)O2 [ZOTATIFIN]
IC50 [2]: > 20 µM
IC50 ([2]; read-out: pIC50 (converted)): > 20 µM

FC(F)c1nc2ccccc2n1-c1nc(N2CCOCC2)nc(N2CCOCC2)n1 [ZSTK-474]
IC50 [2]: > 20 µM
IC50 ([2]; read-out: pIC50 (converted)): > 20 µM

Cc1ccc(O)cc1 [p-CRESOL]
IC50 [2]: > 20 µM
IC50 ([2]; read-out: pIC50 (converted)): > 20 µM

Cn1nnc2ccc(C(c3ccc(Cl)cc3)n3cncn3)cc21 (stereo not drawn) [rac-VOROZOLE]
IC50 [2]: > 20 µM
IC50 ([2]; read-out: pIC50 (converted)): > 20 µM

C[C@@H](NCCc1ccc(O)cc1)[C@@H](O)c1ccc(O)cc1 [rel-RITODRINE]
IC50 [2]: > 20 µM
IC50 ([2]; read-out: pIC50 (converted)): > 20 µM

enfuvirtide
IC50 [2]: > 20 µM
IC50 ([2]; read-out: pIC50 (converted)): > 20 µM
